Experimental data reported in paper PMC3707110 (Nature methods, 2012).
Non-standard residues stand in square brackets, D forms with d. Residues, ends and D or L forms follow the SMILES beside them. *: point of attachment. Sta = CC(C)C[C@H](N)[C@@H](O)CC(=O)O; Isovaleryl = CC(C)CC(=O)*

What was measured:
[1] = test system: peptidases in conditioned media from pancreatic ductal adenocarcinoma cells; assay type: biochemical, mouse; conditions: media pre-treated 30 minutes at room temperature with 1 μM E64, 1 μM 1,10-Phenanthroline or 400 nM pepstatin; pH 5.2; within 1200 minutes
Granzyme B = conditions: fluorescent substrate containing the sequence; previous studies; cited from earlier work

CC(C)CC(=O)N[C@H](C(=O)N[C@H](C(=O)N[C@@H](CC(C)C)[C@@H](O)CC(=O)N[C@@H](C)C(=O)N[C@@H](CC(C)C)[C@@H](O)CC(=O)O)C(C)C)C(C)C [pepstatin] (Isovaleryl-VV[Sta]A[Sta]-OH)
effect on cleavage sites / cleavage signature of conditioned media [1]: completely altered the cleavage signature

c1cnc2c(c1)ccc1cccnc12 [1,10-phenanthroline]
effect on cleavage sites / cleavage signature of conditioned media [1]: majority of cleavage sites remained unchanged

VVAD↓SSMES
catalytic efficiency (kcat/KM) (Granzyme B): 116,000 M^−1 s^−1

CC(C)C[C@H](NC(=O)[C@H]1O[C@@H]1C(=O)O)C(=O)NCCCCN=C(N)N [E-64]
effect on cleavage sites / cleavage signature of conditioned media [1]: majority of cleavage sites remained unchanged
